Measurements from paper PMC10747975, “Synthesis, Antimalarial, Antileishmanial, and Cytotoxicity Activities and Preliminary In Silico ADMET Studies of 2-(7-Chloroquinolin-4-ylamino)ethyl Benzoate Derivatives” (Pharmaceuticals, 2023).
Several values for one entry are separate records, joined by “and”; a condition that tells them apart may be missing. Equal values may be shown once. Entries after “also recorded” stand apart in the source; their conditions may differ.

system: not listed separately; assay: In vitro toxicity on mouse red blood cells (haemolysis); format: cell-based; conditions: 2% suspension of mouse red blood cells, mouse RBCs, 37 °C
Experimental: To evaluate the in vitro toxicological effects of the compounds, we measured the haemoglobin released into the supernatant fraction of lysed red blood cells (RBCs). […] To obtain 100% RBCs, mouse blood was spun down at 800 g for 10 min and washed thrice with saline solution. […] RBCs were lysed in 1% saponin solution and were used as a positive control and a PBS solution as a negative control. The percentage of haemolysis was calculated using the formula: % Haemolysis = [(AT − AN)/(AP − AN)] × 100, where AT = mean absorbance of the test compound; AN = mean absorbance of the negative control; AP = mean absorbance of the positive control.

| SMILES | hemolysis at 45 min, 1 mM [%] |
| --- | --- |
| COc1ccc(OC)c(C(=O)OCCNc2ccnc3cc(Cl)ccc23)c1 [4e, 2-(7-Chloroquinolin-4-ylamino)ethyl-2,5-dimethoxybenzoate] | 4.17 ± 0.21 |
| COc1cccc(C(=O)OCCNc2ccnc3cc(Cl)ccc23)c1OC [4c, 2-(7-Chloroquinolin-4-ylamino)ethyl-2,3-dimethoxybenzoate] | 4.73 ± 0.12 |

same assay, conditions: mouse RBCs, 37 °C

| SMILES | hemolysis at 45 min, 1 mM [%] |
| --- | --- |
| CCN(CC)CCCC(C)Nc1ccnc2cc(Cl)ccc12 (stereo not drawn) [CQ, chloroquine, reference compound] | 2.07 ± 0.17 |

system: Leishmania mexicana promastigotes; assay: not given; design: method as in PMID 27458218; conditions: reference compound; cited from earlier work

| SMILES | IC50 [µM] |
| --- | --- |
| CC(C)=CCC/C(C)=C/CNCCNC1C2CC3CC(C2)CC1C3 (stereo not drawn) [SQ109] | 0.53 ± 0.06 |

system: Leishmania mexicana promastigotes; assay: L. mexicana promastigote growth inhibition; format: cell-based; conditions: Leishmania mexicana, growth/viability, Bel 21 strain
Experimental: The growth of L. mexicana was carried out as previously reported. L. mexicana (Bel 21 strain) promastigotes were cultured in liver infusion-tryptose (LIT) medium supplemented with 10% foetal bovine serum using continuous agitation at 29 °C, as reported previously. A growth curve was performed to evaluate the susceptibility of parasites to the different compounds at different concentrations. Parasites were counted daily using a Neubauer chamber. […] The final concentration of sterile DMSO in the parasite culture was 0.1%, not affecting the viability. […] FCCP (2 µM) was used as a positive control.

| SMILES | IC50 [µM] |
| --- | --- |
| COc1ccc(OC)c(C(=O)OCCNc2ccnc3cc(Cl)ccc23)c1 [4e, 2-(7-Chloroquinolin-4-ylamino)ethyl-2,5-dimethoxybenzoate] | < 10 |
| COc1cccc(C(=O)OCCNc2ccnc3cc(Cl)ccc23)c1OC [4c, 2-(7-Chloroquinolin-4-ylamino)ethyl-2,3-dimethoxybenzoate] | < 10 |
| COc1ccc(C(=O)OCCNc2ccnc3cc(Cl)ccc23)cc1 [4b, 2-(7-Chloroquinolin-4-ylamino)ethyl-4-methoxybenzoate] | < 10 |

same assay, conditions: growth/viability, Bel 21 strain

| SMILES | IC50 [µM] |
| --- | --- |
| COc1ccc(OC)c(C(=O)OCCNc2ccnc3cc(Cl)ccc23)c1 [4e, 2-(7-Chloroquinolin-4-ylamino)ethyl-2,5-dimethoxybenzoate] | 5.67 ± 2.15 |
| COc1cccc(C(=O)OCCNc2ccnc3cc(Cl)ccc23)c1OC [4c, 2-(7-Chloroquinolin-4-ylamino)ethyl-2,3-dimethoxybenzoate] | 8.46 ± 1.86 |
| COc1ccc(C(=O)OCCNc2ccnc3cc(Cl)ccc23)cc1 [4b, 2-(7-Chloroquinolin-4-ylamino)ethyl-4-methoxybenzoate] | 8.09 ± 1.47 |

system: Plasmodium berghei ANKA; assay: Four-day suppressive test in P. berghei-infected mice; format: in vivo; conditions: 25 mg/kg ip
Experimental: The compounds 4c and 4e were evaluated in mice infected with P. berghei ANKA, a strain of murine malaria susceptible to CQ(DPh). The compounds 4c and 4e were assessed on the fourth day post-infection by evaluating their ability to increase mouse survival and reduce parasitaemia in vivo compared to untreated controls. The compounds 4c, 4e (25 mg/kg), or CQ (25 mg/kg) were administered intraperitoneally (ip) once daily in mice following previously reported protocols. The Institute of Immunology Bioethical Committee approved the study (AS 161019). We followed the guidelines for Laboratory Animal Research of the National Research Council (ILAR).
For the experiments, male BALB/c mice, 18–22 g, were fed a commercial pellet diet under controlled conditions approved by the Institute of Immunology’s Ethics Committee. The animals were infected with the rodent malaria ANKA strain of Plasmodium berghei; 1 × 10^6 infected erythrocytes diluted in phosphate-buffered saline (PBS; 10 mM, pH 7.4, 0.1 mL) were injected […] into mice. Microscopic examination of Giemsa-stained smears was used to monitor parasitaemia.
Plasmodium berghei-infected red blood cells were injected into the caudal vein of BALB/c mice (18–23 g) (n = 6). Within two hours of infection, the active compounds from the in vitro test began to be administered (inhibition of β-H formation). Following dissolution in DMSO (0.1 M), the compounds were diluted with 2% saline-Tween 20 solution. The compounds (dose 25 mg kg^−1) were administered ip for four days. Giemsa-stained smears were examined on the fourth day to determine the parasite load. As a positive control, CQ (25 mg kg^−1) in DMSO (0.1 M) diluted with 2% saline-Tween 20 solution was used. A control group of mice infected with P. berghei incubated with saline solution was used to determine survival times. The results are expressed as a percentage of parasitaemia, and the survival curve was constructed based on the number of days of survival after treatment with the compound over that of mice infected without treatment.

| SMILES | Survival: number of mice that survived until Day 30 post-infection/total number of mice in the group |
| --- | --- |
| CCN(CC)CCCC(C)Nc1ccnc2cc(Cl)ccc12 (stereo not drawn) [CQ, chloroquine, reference compound] | 6/6 |
| COc1ccc(OC)c(C(=O)OCCNc2ccnc3cc(Cl)ccc23)c1 [4e, 2-(7-Chloroquinolin-4-ylamino)ethyl-2,5-dimethoxybenzoate] | 0/6 |
| COc1cccc(C(=O)OCCNc2ccnc3cc(Cl)ccc23)c1OC [4c, 2-(7-Chloroquinolin-4-ylamino)ethyl-2,3-dimethoxybenzoate] | 0/6 |

same assay, conditions: P. berghei-infected BALB/c mice, 25 mg/kg ip once daily for four days, n = 6

| SMILES | Sd: survival days (± SEM) [days] |
| --- | --- |
| CCN(CC)CCCC(C)Nc1ccnc2cc(Cl)ccc12 (stereo not drawn) [CQ(DPh), chloroquine bisphosphate, reference compound] | 30 |

same assay, conditions: P. berghei-infected BALB/c mice, 25 mg/kg ip once daily for four days, n = 6; 25 mg/kg

| SMILES | Sd: survival days (± SEM) |
| --- | --- |
| COc1ccc(OC)c(C(=O)OCCNc2ccnc3cc(Cl)ccc23)c1 [4e, 2-(7-Chloroquinolin-4-ylamino)ethyl-2,5-dimethoxybenzoate] | 14.4 ± 1.20 days and 14.43 ± 1.20 days |
| COc1cccc(C(=O)OCCNc2ccnc3cc(Cl)ccc23)c1OC [4c, 2-(7-Chloroquinolin-4-ylamino)ethyl-2,3-dimethoxybenzoate] | 16.7 ± 2.16 days and 16.71 ± 2.16 days |

same assay, conditions: fourth day post-infection, 25 mg/kg ip, n = 6

| SMILES | %P: percent parasitaemia (± SEM) [%] |
| --- | --- |
| COc1ccc(OC)c(C(=O)OCCNc2ccnc3cc(Cl)ccc23)c1 [4e, 2-(7-Chloroquinolin-4-ylamino)ethyl-2,5-dimethoxybenzoate] | 12.05 ± 2.36 |
| CCN(CC)CCCC(C)Nc1ccnc2cc(Cl)ccc12 (stereo not drawn) [CQ(DPh), chloroquine bisphosphate, reference compound] | 0.28 ± 0.15 |
| COc1cccc(C(=O)OCCNc2ccnc3cc(Cl)ccc23)c1OC [4c, 2-(7-Chloroquinolin-4-ylamino)ethyl-2,3-dimethoxybenzoate] | 9.86 ± 1.55 |

system: β-hematin formation; assay: Inhibition of β-hematin formation; format: biochemical; conditions: n = 3, read-out: IC50: Half maximal inhibitory concentration (βHF)
Experimental: The β-hematin (β-H) formation assay was performed as described previously. In 96-well microplates, hemin chloride solution (50 μL, 4 mM) was dissolved in dimethyl sulfoxide (DMSO) (5 mg mL^−1). We dissolved the compounds in DMSO and added different concentrations (100–5 mM) to the test wells (50 μL). As controls, 50 μL of water and 50 μL of DMSO were used. Experiments were conducted in triplicate. In order to generate β-H, acetate buffer (100 μL, 0.2 M, pH 4.4) was used. After 48 h at 37 °C, the plates were centrifuged (4000 RPM for 15 min, IEC-CENTRA, MP4R) (International Equipment Company, MA, USA). After discarding the supernatants, the pellet was washed twice with DMSO (200 μL) and dissolved in NaOH (200 μL, 0.2 N). […] The outcomes are expressed as percentages of inhibition of β-H formation.

| SMILES | IC50 [µM] |
| --- | --- |
| COc1cc(C(=O)OCCNc2ccnc3cc(Cl)ccc23)cc(OC)c1OC [4g, 2-(7-Chloroquinolin-4-ylamino)ethyl-3,4,5-trimethoxybenzoate] | 2.98 ± 0.17 |
| O=C(OCCNc1ccnc2cc(Cl)ccc12)c1ccc(C(F)(F)F)cc1 [4m, 2-(7-Chloroquinolin-4-ylamino)ethyl-4-(trifluoromethyl)benzoate] | 3.24 ± 0.15 |
| Cc1cc(C)cc(C(=O)OCCNc2ccnc3cc(Cl)ccc23)c1 [4j, 2-(7-Chloroquinolin-4-ylamino)ethyl-3,5-dimethylbenzoate] | 3.16 ± 0.38 |
| Cc1ccc([N+](=O)[O-])c(C(=O)OCCNc2ccnc3cc(Cl)ccc23)c1 [4k, 2-(7-Chloroquinolin-4-ylamino)ethyl-5-methyl-2-nitrobenzoate] | 4.27 ± 0.67 |
| COc1ccc(OC)c(C(=O)OCCNc2ccnc3cc(Cl)ccc23)c1 [4e, 2-(7-Chloroquinolin-4-ylamino)ethyl-2,5-dimethoxybenzoate] | 1.81 ± 0.83 |
| OCCNc1ccnc2cc(Cl)ccc12 [compound 2, 2-(7-Chloroquinolin-4-ylamino)ethanol] | 5.06 ± 0.31 |
| O=C(OCCNc1ccnc2cc(Cl)ccc12)c1ccccc1F [4i, 2-(7-Chloroquinolin-4-ylamino)ethyl-2-fluorobenzoate] | 4.01 ± 0.09 |
| CC(C)(C)c1ccc(C(=O)OCCNc2ccnc3cc(Cl)ccc23)cc1 [4l, 2-(7-Chloroquinolin-4-ylamino)ethyl-4-tert-butylbenzoate] | 3.57 ± 0.22 |
| COc1ccc(C(=O)OCCNc2ccnc3cc(Cl)ccc23)c(OC)c1 [4d, 2-(7-Chloroquinolin-4-ylamino)ethyl-2,4-dimethoxybenzoate] | 8.59 ± 0.01 |
| COc1cccc(C(=O)OCCNc2ccnc3cc(Cl)ccc23)c1OC [4c, 2-(7-Chloroquinolin-4-ylamino)ethyl-2,3-dimethoxybenzoate] | 2.1 ± 0.48 |
| COc1ccc(C(=O)OCCNc2ccnc3cc(Cl)ccc23)cc1 [4b, 2-(7-Chloroquinolin-4-ylamino)ethyl-4-methoxybenzoate] | 3.09 ± 0.27 |
| O=C(OCCNc1ccnc2cc(Cl)ccc12)c1cccc(Cl)c1 [4h, 2-(7-Chloroquinolin-4-ylamino)ethyl-3-chlorobenzoate] | 6.85 ± 0.94 |
| COc1cc(OC)c(C(=O)OCCNc2ccnc3cc(Cl)ccc23)cc1OC [4f, 2-(7-Chloroquinolin-4-ylamino)ethyl-2,4,5-trimethoxybenzoate] | 3.29 ± 0.23 |
| COc1ccccc1C(=O)OCCNc1ccnc2cc(Cl)ccc12 [4a, 2-(7-Chloroquinolin-4-ylamino)ethyl-2-methoxybenzoate] | 4.16 ± 0.61 |

system: acidocalcisomes of Leishmania mexicana; assay: Acidocalcisome function (acridine orange accumulation); format: cell-based; conditions: results not shown
Description: Considering this issue, we investigate another possible action of these compounds in these parasites. The acidocalcisomes are another relevant organelle characteristic of these trypanosomatids directly involved in bioenergetics and intracellular Ca^2+ regulation. These are acidic vacuoles rich in calcium and phosphates, engaged in the production and storage of pyrophosphates, and alternative energetic currency in addition to ATP, well known in trypanosomatids. For this reason, we also tested the possible effect of the compounds 4b, 4c, and 4e on acidocalcisomes, using acridine orange accumulation as a well-recognized method. This compound is released to the medium after parasite alkalization, denoting the loss of this organelle function. […] In this context, it is interesting to mention that in trypanosomatids, the disruption of intracellular Ca^2+ homeostasis drives parasite death, thus proposing that alteration of this function could be a rational therapeutic target.

| SMILES | Effect on acidocalcisome functionality |
| --- | --- |
| COc1ccc(OC)c(C(=O)OCCNc2ccnc3cc(Cl)ccc23)c1 [4e, 2-(7-Chloroquinolin-4-ylamino)ethyl-2,5-dimethoxybenzoate] | none of these compounds showed any effect |
| COc1cccc(C(=O)OCCNc2ccnc3cc(Cl)ccc23)c1OC [4c, 2-(7-Chloroquinolin-4-ylamino)ethyl-2,3-dimethoxybenzoate] | none of these compounds showed any effect |
| COc1ccc(C(=O)OCCNc2ccnc3cc(Cl)ccc23)cc1 [4b, 2-(7-Chloroquinolin-4-ylamino)ethyl-4-methoxybenzoate] | none of these compounds showed any effect |

system: mitochondrial electrochemical membrane potential of Leishmania mexicana promastigotes; assay: Mitochondrial membrane potential of L. mexicana (rhodamine 123); format: cell-based; conditions: compounds 10 μM; b32 compares 4b, 4e with 4c
Experimental: The effect of different compounds on the mitochondrial membrane potential of L. mexicana promastigotes was evaluated using rhodamine 123, a fluorescent dye distributed inside mitochondria according to the electrochemical membrane potential, as reported previously. Briefly, 10^8 parasites were obtained by centrifugation at 600× g for 2 min and washed in phosphate-buffered saline solution (PBS) plus 1% glucose. The pellet was resuspended in the same buffer but in the presence of 20 µM rhodamine 123 for 45 min at 29 °C in the dark with mild agitation. Then, parasites were washed twice, resuspended in the same buffer, and transferred into a stirred cuvette. Measurements (excitation wavelength [λex], 488 nm; emission wavelength [λem], 530 nm) were made in a Hitachi 7000 spectrofluorometer at 29 °C (Hitachi High-Tech Corporation, Tokyo, Japan). FCCP (2 µM) was used as a positive control.

| SMILES | Effect on mitochondrial electrochemical membrane potential (rhodamine 123 fluorescence release) |
| --- | --- |
| COc1ccc(OC)c(C(=O)OCCNc2ccnc3cc(Cl)ccc23)c1 [4e, 2-(7-Chloroquinolin-4-ylamino)ethyl-2,5-dimethoxybenzoate] | rapid increase in the fluorescence; also recorded: significantly higher |
| COc1cccc(C(=O)OCCNc2ccnc3cc(Cl)ccc23)c1OC [4c, 2-(7-Chloroquinolin-4-ylamino)ethyl-2,3-dimethoxybenzoate] | rapid increase in the fluorescence; also recorded: lower |
| COc1ccc(C(=O)OCCNc2ccnc3cc(Cl)ccc23)cc1 [4b, 2-(7-Chloroquinolin-4-ylamino)ethyl-4-methoxybenzoate] | rapid increase in the fluorescence; also recorded: significantly higher |
